Assays:
[1] = Oxidation of RC-101 by hydrogen peroxide, HPLC; conditions: EDTA 1.0 μg/mL, H2O2 0.002%, RC-101 500 μg/mL, HPLC over time
Method: For all pre-formulation studies described below, triplicate solutions of RC-101 (500 μg/mL) were prepared in either water or aqueous buffer solution. Thermal degradation studies were conducted at 25, 37, and 65°C for a minimum period of 1 week. The effect of pH on the stability of RC-101 was evaluated over the pH range from 3 to 12 using 10 mM phosphate buffer solutions, at low (50 mmol/kg) and high (500 mmol/kg) ionic strength. Oxidation of RC-101 was evaluated by exposing a solution of RC-101 to hydrogen peroxide (H2O2) at concentrations of 3.0, 0.08, and 0.002% (v/v). The high H2O2 concentration (3.0%) was selected as a forced degradation concentration. […] Protection against oxidation was investigated by the addition of antioxidants commonly used in pharmaceutical products. The antioxidants used in this study were: methionine (95.2 μg/mL or 250 μg/mL), cysteine (95.2 μg/mL), glutathione (90.9 μg/mL), vitamin E TPGS (90.9 μg/mL), ascorbic acid (1.0 mg/mL), sodium ascorbate (1.0 mg/mL), and EDTA (1.0 μg/mL).
RC-101 concentration after exposure to preformulation conditions was analyzed by HPLC as previously described [11]. Briefly, the HPLC system (Waters Corporation, Milford, MA) was equipped with an autoinjector model 717, a quaternary pump model 600, and an ultraviolet (UV) detector model 2487 set up at 215 nm. Separation of RC-101 from degradant products was achieved using a Phenomenex Jupiter 5 μC5 300 Å (4.6 × 250 mm) column (Phenomenex, Torrance, CA) protected by a Widepore C5 (4 × 3.0 mm) guard cartridge (Phenomenex). The gradient consisted of mobile phase A (0.1% TFA in water (v/v)), and mobile phase B (0.07% TFA in acetonitrile (v/v)) pumped at a flow rate of 1.0 mL/min. […]
HPLC data obtained from the preformulation studies were expressed as the average percentage of the peak area from time 0 ± standard deviation, n = 3. Results were analyzed by one-way analysis of variance (ANOVA) with multiple comparisons of individual time points by using post hoc Bonferroni correction to detect significant differences under different conditions. […]

[2] = system: normal vaginal microflora; conditions: preliminary studies, data not shown
[3] = system: human ectocervical tissue; conditions: preliminary studies, data not shown

protection of RC-101 against oxidation after exposure to H2O2 [1]: protection
Compound: O=C(O)CN(CCN(CC(=O)O)CC(=O)O)CC(=O)O [EDTA, Ethylenediamine tetraacetic acid]
toxic concentration [2]: ≥ 1%
toxic concentration [3]: ≥ 1%

From paper PMC3199744, “Preformulation and stability in biological fluids of the retrocyclin RC-101, a potential anti-HIV topical microbicide” (AIDS Research and Therapy, 2011)
